Consider 51 compounds from ChEMBL document CHEMBL3046293, “Fungicidal Activities of -Methoxyphenylacetic Acid Derivatives” (2002).

Type in all cases: functional
For assay [1], the system named is Pyricularia oryzae. Briefly: Fungicidal activity against Magnaporthe oryzae Cav. race 003 assessed as rice blast disease control at 500 ppm treated 24 hr before inoculation by preventive manner.
Assay [2] deals with Podosphaera fuliginea. Briefly: Fungicidal activity against Podosphaera fuliginea assessed as cucumber powdery mildew disease control at 31.3 ppm treated 24 hr before inoculation by preventive manner.
The subject of assay [3] is Botrytis cinerea. The experiment in a line: Fungicidal activity against Botryotinia fuckeliana assessed as cucumber gray mold disease control at 500 ppm treated 24 hr before inoculation by preventive manner.
Assay [4] concerns Podosphaera fuliginea. The experiment in a line: Fungicidal activity against Podosphaera fuliginea assessed as cucumber powdery mildew disease control at 125 ppm treated 24 hr before inoculation by preventive manner.
For assay [5], the system named is Podosphaera fuliginea. Briefly: Fungicidal activity against Podosphaera fuliginea assessed as cucumber powdery mildew disease control at 7.8 ppm treated 24 hr before inoculation by preventive manner.
Assay [6] concerns Podosphaera fuliginea. Briefly: Fungicidal activity against Podosphaera fuliginea assessed as cucumber powdery mildew disease control at 500 ppm treated 24 hr before inoculation by preventive manner.
In assay [7] the test system is Pyricularia oryzae. The experiment in a line: Fungicidal activity against Magnaporthe oryzae Cav. race 003 assessed as rice blast disease control at 125 ppm treated 24 hr before inoculation by preventive manner.
For assay [8], the system named is Botrytis cinerea. Briefly: Fungicidal activity against Botryotinia fuckeliana assessed as cucumber gray mold disease control at 7.8 ppm treated 24 hr before inoculation by preventive manner.

In the case of `COC(C(N)=O)c1cccc(COc2cc(C)ccc2C)c1` (stereo not drawn), the Activity in the assay with Pyricularia oryzae [1] is 90%; with Podosphaera fuliginea [2], 90%; in the assay on Botrytis cinerea [3], less than 50%.

Take `CNC(=O)C(OC)c1cccc(Oc2ccc(C)c(C)c2)c1` (stereo not drawn): the Activity in the assay with Pyricularia oryzae [1] is less than 90%; in the assay with Podosphaera fuliginea [4], 90%; in the assay with Botrytis cinerea [3], less than 50%.

Regarding `CNC(=O)C(OC)c1cccc(COc2ccc(Cl)cc2Cl)c1` (stereo not drawn), the figures for the Activity in the assay on Pyricularia oryzae [1], with Podosphaera fuliginea [5] and with Botrytis cinerea [3] were less than 90%, 90% and less than 50%, respectively.

Consider `CNC(=O)C(OC)c1cccc(Oc2cccc(C)c2)c1` (stereo not drawn), for which the Activity in the assay with Pyricularia oryzae [1] was less than 90%; with Podosphaera fuliginea [6], less than 90%; in the assay with Botrytis cinerea [3] it was less than 50%.

As for `COC(=O)C(OC)c1cccc(COc2cccc(C)c2)c1` (stereo not drawn), the Activity is listed as less than 90% in the assay on Pyricularia oryzae [1], 90% with Podosphaera fuliginea [4] and less than 50% in the assay with Botrytis cinerea [3].

For the compound `CNC(=O)C(OC(C)=O)c1cccc(COc2cc(C)ccc2C)c1` (stereo not drawn), the Activity in the assay on Pyricularia oryzae [1] is less than 90%; in the assay with Podosphaera fuliginea [6], less than 90%; with Botrytis cinerea [3], less than 50%.

Consider `CCc1ccccc1OCc1cccc(C(OC)C(=O)NC)c1` (stereo not drawn), for which the Activity in the assay on Pyricularia oryzae [7] worked out at 90%; in the assay on Podosphaera fuliginea [5] it was 90%; with Botrytis cinerea [3] it was 50%.

Consider `COC(=O)C(OC)c1cccc(COc2cc(Cl)cc(Cl)c2)c1` (stereo not drawn), for which the Activity is less than 90% in the assay with Pyricularia oryzae [1], 90% in the assay on Podosphaera fuliginea [4] and less than 50% with Botrytis cinerea [3].

As for `COC(=O)C(OC)c1cccc(COc2ccc(C)cc2C)c1` (stereo not drawn), the Activity is 90% in the assay on Pyricularia oryzae [1], less than 90% in the assay with Podosphaera fuliginea [6] and 50% in the assay on Botrytis cinerea [3].

Regarding `CNC(=O)C(OC)c1cccc(Oc2cc(C)cc(C)c2)c1` (stereo not drawn), the Activity is recorded as less than 90% in the assay with Pyricularia oryzae [1], 90% with Podosphaera fuliginea [2] and less than 50% with Botrytis cinerea [3].

`CNC(=O)C(OC)c1cccc(COc2ccc(C)cc2Cl)c1` (stereo not drawn): the Activity was 90% with Pyricularia oryzae [7], 90% in the assay on Podosphaera fuliginea [5] and 50% in the assay with Botrytis cinerea [3].

On to `CNC(=O)C(OC)c1cccc(COc2ccccc2Cl)c1` (stereo not drawn), for which the Activity with Pyricularia oryzae [1] is recorded as 90%; with Podosphaera fuliginea [5], 90%; with Botrytis cinerea [3] it was less than 50%.

Turning to `CNC(=O)C(OC)c1cccc(COc2cccc(C)c2C)c1` (stereo not drawn), the Activity in the assay on Pyricularia oryzae [7] is listed as 90%; in the assay with Podosphaera fuliginea [5], 90%; in the assay with Botrytis cinerea [8], 50%.

For `CNC(=O)C(OC)c1cccc(COc2ccc(Cl)cc2C)c1` (stereo not drawn), the Activity in the assay on Pyricularia oryzae [7] was found to be 90%; in the assay on Podosphaera fuliginea [5] it was 90%; with Botrytis cinerea [8], 50%.

With `COC(=O)C(OC)c1cccc(COc2ccc(Cl)cc2Cl)c1` (stereo not drawn), the results for the Activity in the assay with Pyricularia oryzae [1], in the assay on Podosphaera fuliginea [5] and in the assay on Botrytis cinerea [3] were less than 90%, 90% and less than 50%, respectively.

For the compound `CNC(=O)C(OC)c1cccc(COc2cc(Cl)cc(Cl)c2)c1` (stereo not drawn), the Activity is less than 90% in the assay with Pyricularia oryzae [1], 90% in the assay with Podosphaera fuliginea [2] and less than 50% in the assay on Botrytis cinerea [3].

`CNC(=O)C(OC)c1cccc(COc2ccccc2F)c1` (stereo not drawn): the Activity in the assay with Pyricularia oryzae [1] is given as 90%; with Podosphaera fuliginea [2], 90%; in the assay with Botrytis cinerea [3], 50%.

Turning to `COC(=O)C(OC)c1cccc(COc2ccccc2)c1` (stereo not drawn), the Activity with Pyricularia oryzae [1] is given as less than 90%; with Podosphaera fuliginea [4], 90%; in the assay on Botrytis cinerea [3] it was less than 50%.

As for `COC(=O)C(OC)c1cccc(COc2cc(C)ccc2C)c1` (stereo not drawn), the Activity is recorded as 90% in the assay on Pyricularia oryzae [7], less than 90% with Podosphaera fuliginea [6] and 50% in the assay on Botrytis cinerea [3].

For `CNC(=O)C(OC)c1cccc(COc2ccc(C)cc2OC)c1` (stereo not drawn), the Activity is on record as less than 90% in the assay with Pyricularia oryzae [1], less than 90% in the assay on Podosphaera fuliginea [6] and 50% in the assay on Botrytis cinerea [3].

For `CNC(=O)C(OC)c1cccc(COc2c(C)cccc2C)c1` (stereo not drawn), the Activity in the assay on Pyricularia oryzae [1] is listed as less than 90%; in the assay with Podosphaera fuliginea [6] it was less than 90%; in the assay on Botrytis cinerea [3], less than 50%.

As for `COC(=O)C(OC)c1cccc(Oc2cc(C)cc(C)c2)c1` (stereo not drawn), the Activity was less than 90% in the assay on Pyricularia oryzae [1], 90% in the assay on Podosphaera fuliginea [6] and less than 50% in the assay with Botrytis cinerea [3].

Take `COC(=O)C(OC)c1cccc(COc2ccc(C)cc2)c1` (stereo not drawn): the Activity with Pyricularia oryzae [1] is given as less than 90%; in the assay with Podosphaera fuliginea [4] it was 90%; in the assay on Botrytis cinerea [3], less than 50%.

Regarding `CCc1ccccc1OCc1cccc(C(OC)C(=O)OC)c1` (stereo not drawn), the Activity in the assay with Pyricularia oryzae [1] is on record as less than 90%; in the assay on Podosphaera fuliginea [6] it was less than 90%; in the assay on Botrytis cinerea [3], less than 50%.

As to `CNC(=O)C(OC)c1cccc(Oc2ccc(Cl)cc2)c1` (stereo not drawn), the Activity is listed as less than 90% in the assay on Pyricularia oryzae [1], less than 90% in the assay with Podosphaera fuliginea [6] and less than 50% with Botrytis cinerea [3].

As to `CNC(=O)C(OC)c1cccc(Oc2ccccc2)c1` (stereo not drawn), the Activity is given as less than 90% in the assay with Pyricularia oryzae [1], less than 90% in the assay with Podosphaera fuliginea [6] and less than 50% in the assay with Botrytis cinerea [3].

As for `CNC(=O)C(OC)c1cccc(COc2ccc(C)c(C)c2)c1` (stereo not drawn), the Activity with Pyricularia oryzae [7] is 90%; in the assay with Podosphaera fuliginea [2] it was 90%; with Botrytis cinerea [3], 50%.

`CNC(=O)C(OCOC)c1cccc(COc2cc(C)ccc2C)c1` (stereo not drawn): the values for the Activity in the assay with Pyricularia oryzae [1], in the assay on Podosphaera fuliginea [6] and with Botrytis cinerea [3] were less than 90%, less than 90% and less than 50%, respectively.

As to `COC(=O)C(OC)c1cccc(COc2cccc(C)c2C)c1` (stereo not drawn), the Activity is reported as 90% with Pyricularia oryzae [1], less than 90% in the assay on Podosphaera fuliginea [6] and less than 50% in the assay on Botrytis cinerea [3].

With `CCOC(C(=O)NC)c1cccc(COc2cc(C)ccc2C)c1` (stereo not drawn), the Activity is less than 90% with Pyricularia oryzae [1], 90% in the assay on Podosphaera fuliginea [5] and less than 50% in the assay with Botrytis cinerea [3].

Turning to `CNC(=O)C(OC)c1cccc(CSc2cc(C)ccc2C)c1` (stereo not drawn), the Activity is recorded as less than 90% with Pyricularia oryzae [1], 90% with Podosphaera fuliginea [6] and less than 50% with Botrytis cinerea [3].

As to `CNC(=O)C(OC)c1cccc(COc2cccc(Cl)c2)c1` (stereo not drawn), the Activity was less than 90% in the assay with Pyricularia oryzae [1], 90% in the assay with Podosphaera fuliginea [2] and 50% with Botrytis cinerea [3].

For `COC(C(=O)O)c1cccc(COc2cc(C)ccc2C)c1` (stereo not drawn), the results for the Activity in the assay on Pyricularia oryzae [1], in the assay on Podosphaera fuliginea [5] and with Botrytis cinerea [3] were 90%, 90% and less than 50%, respectively.

As to `CNC(=O)C(OC)c1cccc(Oc2ccc(C)cc2)c1` (stereo not drawn), the Activity in the assay with Pyricularia oryzae [1] is less than 90%; in the assay on Podosphaera fuliginea [6] it was less than 90%; with Botrytis cinerea [3] it was less than 50%.

Take `COC(=O)C(OC)c1cccc(COc2ccccc2C)c1` (stereo not drawn): the Activity in the assay with Pyricularia oryzae [7] was 90%; in the assay with Podosphaera fuliginea [4], 90%; in the assay on Botrytis cinerea [3], 50%.

Regarding `CNC(=O)C(OC)c1cccc(COc2ccccc2OC)c1` (stereo not drawn), the values for the Activity with Pyricularia oryzae [1], in the assay on Podosphaera fuliginea [6] and in the assay with Botrytis cinerea [3] were less than 90%, less than 90% and less than 50%, respectively.

Turning to `COC(=O)C(OC)c1cccc(COc2ccc(Cl)cc2)c1` (stereo not drawn), the Activity in the assay on Pyricularia oryzae [1] was less than 90%; in the assay with Podosphaera fuliginea [4], 90%; in the assay with Botrytis cinerea [3] it was less than 50%.

Consider `COC(=O)C(OC)c1cccc(Oc2ccc(C)c(C)c2)c1` (stereo not drawn), for which the Activity is on record as less than 90% with Pyricularia oryzae [1], 90% in the assay with Podosphaera fuliginea [6] and less than 50% with Botrytis cinerea [3].

On to `COC(=O)C(OC)c1cccc(COc2ccccc2Cl)c1` (stereo not drawn), for which the Activity is on record as 90% with Pyricularia oryzae [7], 90% in the assay with Podosphaera fuliginea [4] and 50% with Botrytis cinerea [3].

As for `CNC(=O)C(OC)c1cccc(COc2ccc(Cl)cc2)c1` (stereo not drawn), the Activity is recorded as less than 90% with Pyricularia oryzae [1], 90% in the assay on Podosphaera fuliginea [2] and less than 50% with Botrytis cinerea [3].

For `COC(C(=O)SC)c1cccc(COc2cc(C)ccc2C)c1` (stereo not drawn), the values for the Activity with Pyricularia oryzae [1], in the assay on Podosphaera fuliginea [6] and in the assay on Botrytis cinerea [3] were less than 90%, less than 90% and less than 50%, respectively.

Consider `CCCCOC(C(=O)NC)c1cccc(COc2cc(C)ccc2C)c1` (stereo not drawn), for which the figures for the Activity in the assay with Pyricularia oryzae [1], in the assay with Podosphaera fuliginea [2] and with Botrytis cinerea [3] were less than 90%, 90% and less than 50%, respectively.

`CCCCNC(=O)C(OC)c1cccc(COc2cc(C)ccc2C)c1` (stereo not drawn): the values for the Activity with Pyricularia oryzae [1], in the assay with Podosphaera fuliginea [6] and in the assay on Botrytis cinerea [3] were less than 90%, less than 90% and less than 50%, respectively.

In the case of `CNC(=O)C(OC)c1cccc(COc2cccc(C)c2)c1` (stereo not drawn), the Activity in the assay with Pyricularia oryzae [1] is on record as 90%; in the assay on Podosphaera fuliginea [4], 90%; in the assay on Botrytis cinerea [3], less than 50%.

Turning to `CNC(=O)C(OC)c1cccc(COc2cc(C)ccc2Cl)c1` (stereo not drawn), the Activity in the assay on Pyricularia oryzae [7] was 90%; in the assay on Podosphaera fuliginea [5], 90%; with Botrytis cinerea [8] it was 50%.

For the compound `CNC(=O)C(OC)c1cccc(COC(=O)c2ccc(Cl)cc2)c1` (stereo not drawn), the Activity with Pyricularia oryzae [1] is reported as less than 90%; with Podosphaera fuliginea [6], less than 90%; in the assay with Botrytis cinerea [3], less than 50%.

Take `CNC(=O)C(OC)c1cccc(COc2ccc(C)cc2)c1` (stereo not drawn): the Activity in the assay on Pyricularia oryzae [1] was 90%; with Podosphaera fuliginea [2] it was 90%; in the assay with Botrytis cinerea [3], less than 50%.

Take `CNC(=O)C(OC)c1cccc(OCc2ccc(Cl)cc2)c1` (stereo not drawn): the Activity is reported as less than 90% in the assay on Pyricularia oryzae [1], less than 90% with Podosphaera fuliginea [6] and less than 50% in the assay with Botrytis cinerea [3].

Turning to `CNC(=O)C(OC)c1cccc(COc2ccccc2C)c1` (stereo not drawn), the results for the Activity in the assay on Pyricularia oryzae [1], with Podosphaera fuliginea [5] and in the assay on Botrytis cinerea [8] were 90%, 90% and 50%, respectively.

For `CNC(=O)C(OC)c1cccc(COc2ccccc2)c1` (stereo not drawn), the Activity in the assay with Pyricularia oryzae [1] is less than 90%; in the assay on Podosphaera fuliginea [4] it was 90%; in the assay with Botrytis cinerea [3], 50%.

As to `COC(C(=O)N(C)C)c1cccc(COc2cc(C)ccc2C)c1` (stereo not drawn), the Activity in the assay with Pyricularia oryzae [1] was 90%; in the assay with Podosphaera fuliginea [4], 90%; in the assay with Botrytis cinerea [3], less than 50%.
